Results on 1 compound are retold here after patent publication US6005099A, “Glucosamine disaccharides, method for their preparation, pharmaceutical composition comprising same, and their use” (priority 1993, dated 1999).

Values after ≈ are worked out from the molar mass of the structure shown. “Also recorded” adds a separate entry of the source.

For experiment [1], the system named is macrophages of C57BL/6 mice. Kind of experiment: Nitric oxide (NO) production in supernatants of macrophages. Type of experiment: cell-based. On the procedure: (§1) Bone marrow was collected from hip, femur and tibia of six week old male C57BL/6 mice.
(§2) After 7 days the mature macrophages were collected and resuspended in Dulbecco modified medium comprising 5% foetal calf serum to a concentration of 7×10^6 cells per ml. This cell suspension was mixed 1:1, (v/v) with samples diluted in the same medium and used in the biological tests performed in microplates with 70,000 cells/well (incubation at 37° C. for 22 hours, 100% humidity and 8% CO2).
Nitric oxide (NO) is produced by macrophages in response to bacterial infection and in particular LPS. NO seems to have cytostatic and cytotoxic properties. NO is extremely reactive and rapidly converted by oxidation into nitrite and nitrate.
The nitrite formation was determined using the Griess test (addition of 1:1, (v/v) N-(1-naphthyl)ethylene diamine hydrochloride [1 g/l in water] and p-aminobenzenesulphonamide [10 g/l in 5% H3 PO4 ]). The nitrite concentration in supernatants of activated macrophages was calculated in comparison to NaNO2 standards.

Experiment [2] deals with macrophages of C57BL/6 mice. Kind of experiment: Production of interleukin-6 (IL-6) in supernatants of macrophages, ELISA. Type of experiment: cell-based. On the procedure: as §1, §2
IL-6 concentration in supernatants of macrophages was determined by an ELISA test (Kit ENDOGEN, EM-IL-6).
(In general: ELISA stands for enzyme-linked immunosorbent assay.)

For experiment [3], the system named is Limulus amoebocyte lysate (LAL). Kind of experiment: Endotoxicity in the limulus amoebocyte lysate (LAL) test (gelification and chromogenic). Format: biochemical, Limulus polyphemus. On the procedure:
The endotoxicity and the biological activity of disaccharide A (example 1) and of disaccharide B (example 2) were determined and compared to that of lipopolysaccharide originating from Escherichia coli O111:B4 (Sigma, Product No. L3024), lipid A (Sigma, Product No. L5399; used as a starting material in example 4), and 3-O-deacylated lipid A originating from lipid A of Escherichia coli F583 (prepared as in the comparative example), but without purification by HPLC.
The endotoxicity was determined in the Limulus amoebocyte lysate (LAL) test. This test is based on the observation that endotoxins induce coagulation of the hemolymph of Limulus polyphemus.
In the gelification test serial dilutions of the compound to be tested were mixed with LAL 1:1, (v/v) (Haemachem Inc., sensitivity LAL 0.06 endotoxin units/ml), and the mixture was incubated for one hour at 37° C. Then gel formation was monitored by measuring the optical density at 405 nm. The last dilution which formed a gel was determined by inverting the reaction microplate. The endotoxin activity in the samples was determined by comparison with dilutions of a lipopolysaccharide standard (1 endotoxin unit=0.1 ng LPS).
The endotoxicity was also measured in the chromogenic test, in which the activation of a protease in LAL by LPS was measured using a chromogen (Ac-Ile-Glu-Ala-Arg-pNA; Bio Whittaker Kit No. 50-650U). […]

The mark [4] stands for this setting: for lipid A and 3-O-deacylated lipid A activity relatively constant within the tested range, no maximum.

For `CCCCCCCCCCCC(=O)O[C@H](CCCCCCCCCCC)CC(=O)N[C@H]1[C@H](OC[C@H]2O[C@H](OP(=O)(O)O)[C@H](NC(=O)C[C@H](O)CCCCCCCCCCC)[C@@H](O)[C@@H]2O)O[C@H](CO)[C@@H](OP(=O)(O)O)[C@@H]1O` [disaccharide A, 2-Deoxy-6-O-[2-deoxy-2-[(R)-3-dodecanoyloxytetradecanoylamino]-4-O-phosphono-β-D-glucopyranosyl]-2-[(R)-3-hydroxytetradecanoylamino]-α-D-glucopyranosyl dihydrogenphosphate], the EC50 in experiment [1] (Mus musculus, Macrophage, product concentration corresponding to 50% activity, 22 hours, 37° C.) is 0.16 µg/mL (≈ 0.141 µM); in experiment [2] (Mus musculus, Macrophage, read-out: IL-6: 50% activity, concentration) it was 1 µg/mL (≈ 0.881 µM). The minimal effective concentration in experiment [1] (Mus musculus, Macrophage, product concentration corresponding to induced NO activity, 22 hours, 37° C., read-out: NO production: Minimum activity (product concentration)) was determined as 0.016 µg/mL; in experiment [2] (Mus musculus, Macrophage, 22 h, read-out: IL-6: Minimum activity, concentration), 0.016 µg/mL. In addition, in experiment [1] (extrapolated from the series dilution curve), the “NO activity at 50% in nmol of NO2- /ml” value is on record as 5 nmol of NO2- /ml. In experiment [1] (macrophages of C57BL/6 mice), the “NO production, in words” value was “induce NO production of the same order; also recorded: as strongly as lipid A and 3-O-deacylated lipid A”. Besides, in experiment [1] (product concentration corresponding to induced NO activity, 22 hours, 37° C.), the “NO production: Maximum activity (product concentration)” value turned out to be 50 µg/mL. In addition, the “IL-6 at 50% activity” value in experiment [2] (50% activity) was 2850 pg/mL. In addition, the “IL-6 at minimum activity” value in experiment [2] (at the concentration of minimum activity) is 850 ± 350 pg/mL. For the same compound, the “IL-6: Maximum activity, concentration” value in experiment [2] (setting [4]) came out at 50 µg/mL. Besides, in experiment [2] (setting [4]), the “IL-6 at maximum activity” value is 5700 ± 2650 pg/mL. The “IL-6 production, in words” value in experiment [2] (macrophages of C57BL/6 mice) is “significantly lower than for LPS; also recorded: more strongly than lipid A and 3-O-deacylated lipid A”. Further, in experiment [3], the “Endotoxicity in LAL, in words” value was “lowest endotoxicity”.
